The values below come from patent US6855728B2, “Small-molecule modulators of hepatocyte growth factor / scatter factor activities” (North Shore-Long Island Jewish Health System, priority 2001, dated 2005).

Molecules are shown by their SMILES.

This test concerns Endothelial cells (HUVECs). Nature of the test: Endothelial cell (HUVEC) proliferation assay, 3H thymidine incorporation, compound without added growth factor. The test is classed as cell-based, human. To be noted: for activation at 5 µg/mL / activation at 10 µg/mL: 24 h; for activation at 5 µg/mL / Stimulation at 5 microg/ml / Stimulation/Inhibition at 5 microg/ml (result in words): 5 microg/ml; for activation at 5 µg/mL / activation at 10 µg/mL / Stimulation at 5 microg/ml / Stimulation at 10 microg/ml: stimulation of endothelial cell proliferation. The procedure:
Cell proliferation assays Endothelial cells (HUVECs) were seeded in 48 well plates at a density of 10,000 to 20,000 cells per well in the normal growth medium (EGM-2-Clonetics) containing 2% fetal bovine serum, FGF, VEGF, IGF, ascorbic acid, EGF, GA, heparin and hydrocortisone. The cells were grown normally in the growth medium for 24 hr at 37 degrees C. and 5% CO2. The cells were then rinsed with RPMI-1% BSA and starved for 1-2 hrs. The stock solutions of all the compounds were made at a concentration of 10 mg/ml in DMSO and diluted in RPMI-1% BSA at a final concentrations of 1 to 12 microgram/ml. The cells were then washed and treated with the compounds and incubated for another 24 hr at 37 degrees C. Then ^3H thymidine (0.5 microgram/ml in RPMI-BSA) was added to the cells and incubated at 37 degrees C. for 4 to 5 hours. The unincorporated thymidine was removed by washing the cells four times with 1× PBS. Then the cells were lysed with 0.5M NaOH for 30 min and the radioactivity counted in the beta counter. […]

[1] abbreviates: Homo sapiens, HUVEC, 10 microg/ml.

Where the note is “Homo sapiens, HUVEC”, `Cc1nc(-c2ccc(-c3cccs3)s2)sc1-c1ccn(C(=O)c2ccc(Cl)cc2)n1` [(4-chlorophenyl)(3-(2-(5-(2-thienyl)-2-thienyl)-4-methyl-1,3-thiazol-5-yl)-1H-pyrazol-1-yl)methanone] registered an activation at 5 µg/mL of 20%. Under setting [1], the activation at 10 µg/mL worked out at 33%.

With `Cc1nn(S(=O)(=O)c2cc(C(F)(F)F)cc(C(F)(F)F)c2)c(C)c1Cc1c(F)cccc1Cl` [4-(2-chloro-6-fluorobenzyl)-1-{[3,5-di(trifluoromethyl)phenyl]sulfonyl}-3,5-dimethyl-1H-pyrarole], the “Stimulation at 5 microg/ml” value was determined as 3.1 fold stimulation. Moreover, the “Stimulation at 10 microg/ml” value (10 microg/ml) is on record as 2.4 fold stimulation.

As to `CCc1cn(C(=O)c2cccs2)nc1-c1c(F)cccc1F` [[3-(2,6-difluorophenyl)-4-ethyl-1H-pyrazol-1-yl](2-thienyl)methanone], the “Stimulation at 5 microg/ml” value is listed as 2.5 fold stimulation. Further, the “Stimulation at 10 microg/ml” value (10 microg/ml) was “two fold stimulation”.

Turning to `O=C(Nc1ccc(Cl)cc1)n1ccc(C=Cc2cccs2)n1` [N1-(4-chlorophenyl)-3-(2-(2-thienyl)vinyl)-1H-pyrazole-1-carboxamide], the “Stimulation/Inhibition at 5 microg/ml (result in words)” value (shortened to “Stimulation/Inhibition at 5 microg/ml”) is listed as “No effect”. Also, the activation at 10 µg/mL under setting [1] turned out to be 55%.

On to `CCc1cn(C(=O)C(C)(C)C)nc1-c1c(F)cccc1F` [1-[3-(2,6-difluorophenyl)-4-ethyl-1H-pyrazol-1-yl]-2,2-dimethylpropan-1-one], for which the “Stimulation/Inhibition at 10 microg/ml (result in words)” value (10 microg/ml) is on record as “not significant”. Moreover, the activation at 5 µg/mL (Homo sapiens, HUVEC) came out at 58%.

With `Cc1nn(-c2ccccc2)c(O)c1Cc1c(Cl)cccc1Cl` [4-(2,6-dichlorobenzyl)-3-methyl-1-phenyl-1H-pyrazol-5-ol], the “Stimulation at 5 microg/ml” value stood at 2.3 fold stimulation. The “Stimulation at 10 microg/ml” value (10 microg/ml) is reported as “two fold stimulation”.

Consider `Cc1nn(C(=O)Nc2cccc(Cl)c2)c(C)c1Cc1csc2ccc(Cl)cc12` [N1-(3-chlorophenyl)-4-[(5-chlorobenzo[b]thiophen-3-yl)methyl]-3,5-dimethyl-1H-pyrazole-1-carboxamide], for which, for the setting “Homo sapiens, HUVEC”, the activation at 5 µg/mL was 86%. This molecule also had an activation at 10 µg/mL under setting [1] of 40%.

As to `Cc1nn(S(=O)(=O)c2ccccc2Cl)c(C)c1-c1csc2ccc(Cl)cc12` [4(5-chlorobenzo(b)thiophen-3-yl)-1-(2-chlorophenyl)sulfonyl)-3,5dimethyl-1-H-pyrazole], the “Stimulation at 5 microg/ml” value was 1.8 fold stimulation. In addition, under “10 microg/ml”, the “Stimulation/Inhibition at 10 microg/ml (result in words)” value is on record as “Not significant”.

Consider `Cc1nn(C(=O)Nc2ccc(Cl)cc2Cl)c(C)c1Cc1csc2ccc(Cl)cc12` [4-[(5-chloro-1-benzothiophen-3-yl)methyl]-N-(2,4-dichlorophenyl)-3,5-dimethyl-1H-pyrazole-1-carboxamide], for which the activation at 5 µg/mL (Homo sapiens, HUVEC) was 75%. Moreover, the activation at 10 µg/mL under setting [1] is 35%.

In the case of `COC(=O)c1c(C)nn(C(=O)c2ccc(Cl)cc2)c1-c1ccno1` [methyl 1-(4-chlorobenzoyl)-5-isoxazol-5-yl-3-methyl-1H-pyrazole-4-carboxylate], the “Stimulation/Inhibition at 5 microg/ml” value is reported as “Not significant”. Under setting [1], this molecule displayed an activation at 10 µg/mL of 33%.

In the case of `Cc1nn(C(=O)Nc2ccccc2)c(C)c1Cc1csc2ccc(Cl)cc12` [N1-phenyl-4-[(5-chlorobenzo[b]thiophen-3-yl)methyl]-3,5-dimethyl-1H-pyrazole-1-carboxamide], the “Stimulation at 5 microg/ml” value is listed as “two fold stimulation”. Under setting [1], the activation at 10 µg/mL was found to be 45%.

As for `CSc1cc(-c2ccc(Oc3ccccc3)cc2)nn1C(=O)c1ccc(Cl)cc1` [(4-chlorophenyl)(5-(methylthio)-3-(4-phenoxyphenyl)-1H-pyrazol-1-yl)methanone], the “Stimulation/Inhibition at 5 microg/ml” value was “No effect”. In addition, testing at 10 µg/mL (Homo sapiens, HUVEC, 10 microg/ml, inhibition of endothelial cell proliferation) gave an inhibition of 40%.

Regarding `CC(C)(C)C(=O)n1ccc(C=Cc2cccs2)n1` [2,2-dimethyl-1-(3-(2-(2-thienyl)vinyl)-1H-pyrazole-1-yl)propan-1-one], the “Stimulation/Inhibition at 5 microg/ml” value is “No effect”. Also, the activation at 10 µg/mL under setting [1] is 55%.
